≈ marks a conversion by molar mass, not a printed value.

One series has as its system PBC-1. Put plainly: Growth curve / MIC in TMP-SMZ, PBC-1. Format: cell-based. As to conditions: Escherichia coli; PBC-1, growth curves in TMP-SMZ; read-out: Minimum Inhibition Concentration (MIC). How it is done:
(§1) Mice were IP treated with 6 30 min prior to inoculation with bacteria and compared to a control group of untreated animals. After inoculation with UTI89 or PBC-1, bacterial CFUs were quantified at 6 hpi.
Mannoside ZFH-2056 was added at 100 μM. Growth curves were performed in a 96-well plate at 37° C. with A600 readings taken every 30 min for 8 h.

For series [1] the following is noted: mice, after 3 days of 54 μg/ml TMP and 270 μg/ml SMZ in drinking water. How it is done:
as §1
Water was changed daily for 3 days prior to inoculation with UTI89.

In a further series the test system is UTI89. In words: microbe, parasite or virus in culture. The note with it: Escherichia coli.

With `COc1cc(Cc2cnc(N)nc2N)cc(OC)c1OC` [TMP, Trimethoprim], the MIC with PBC-1 stood at 256 µg/mL (≈ 882 µM); against UTI89, 0.05 µg/mL (≈ 0.172 µM). In series [1], the “TMP concentration in urine” value was 9.95 ± 4.36 mg/mL.

For the origin of these results see US9957289B2, “Compounds and methods for treating bacterial infections” (Washington University, priority 2013, dated 2018).
